From patent US8993001B2, “Methods and compositions for treating feline hyperthyroidism” (Hill's Pet Nutrition, Inc., priority 2006, dated 2015) come the findings set out here.

A short description of data set [1]: Serum creatinine in hyperthyroid cats, six-week study (Example 1). In kind it is in vivo, cat. The procedure: Food B1 and food B2 were mixed in a 1:1 ratio, thus resulting in food B. A group of five cats diagnosed with hyperthyroidism was fed food B for six weeks. Another five cats diagnosed with hyperthyroidism were given 2.5 mg methimazole orally once a day for six weeks while they were fed food B. Eight cats diagnosed with hyperthyroidism were given 2.5 mg methimazole orally once a day for six weeks while they were fed a commercially available cat food. The thyroid hormone profiles and serum chemistries of all cats were measured at zero, two, four, and six weeks.

The test system of data set [2] is cats diagnosed with hyperthyroidism. The data set is described as follows: Serum total T4 in hyperthyroid cats, six-week study (Example 1). In kind it is in vivo, cat. The procedure:
A group of five cats diagnosed with hyperthyroidism was fed food B for six weeks. Another five cats diagnosed with hyperthyroidism were given 2.5 mg methimazole orally once a day for six weeks while they were fed food B. Eight cats diagnosed with hyperthyroidism were given 2.5 mg methimazole orally once a day for six weeks while they were fed a commercially available cat food. The thyroid hormone profiles and serum chemistries of all cats were measured at zero, two, four, and six weeks.

Where [3] appears, read: cats diagnosed with hyperthyroidism, six weeks, methimazole 2.5 mg orally once a day where given.

Consider `Cn1cc[nH]c1=S` [Methimazole, methimazole], for which, in data set [1] (after six weeks, normal range 0.8-1.8 mg/dL), the “serum creatinine concentration relative to the normal creatinine concentration range” value is reported as “a bit higher than the 0.8-1.8 mg/dL normal creatinine concentration range”. The “Change in Serum Creatinine Levels” value in data set [1] (setting [3]) is recorded as “+0.46 mg/dL”. Further, in data set [2] (after six weeks), the “total T4 concentration relative to the normal total T4 concentration range” value is “did not reach the normal total T4 concentration range”. Further, the “Change in Serum Total T4 Levels” value in data set [2] (setting [3]) is -20.3 nmol/L.
